The results in this text go back to patent US20260125374A1, “PI3K-ALPHA INHIBITORS AND METHODS OF MAKING AND USING THE SAME” (Relay Therapeutics, Inc., priority 2021, published 2026).

SMILES strings stand for the structures.

The series is described as follows: Investigation of I-3 Form A in different humidity (VH-XRPD, humidity chamber). The class given is physicochemical. As to conditions: for form after humidity chamber (XRPD): 1 week. As to the method: According to the DVS result of I-3 Form A, two hydrate forms (a mono-hydrate, and a bis-hydrate) may exist when relative humidity is above 50% RH. Variable humidity XRPD (VH-XRPD) was investigated attempting to capture the potential hydrate(s).
To further evaluate form conversion of I-3 Form A, this salt was placed in different humidity (30% RH, 40% RH and 50% RH) chambers for 1 week.
I-3 Form A was used as starting material. One RH cycle was applied at 25° C. XRPD analysis was carried out in each specific relative humidity. Cycle: 39% RH (initial)-10% RH (2h)-40% RH (2h)-50% RH (2h)-70% RH (2h). Meanwhile, I-3 Form A was exposed to 30% RH, 40% RH and 50% RH chamber for 1 week. Samples were analyzed by XRPD using air tight container.

Regarding `N#Cc1c(-c2cc(NC(=O)c3cc(F)cc(C(F)(F)F)c3)c3c(c2)C(=O)N[C@H]3c2cc(F)ccc2Cl)ccc2ncnn12` [Compound I-3], the “form after humidity chamber (XRPD)” value is given as “additional peaks belongs to Form B” (30% RH); “converted to I-3 Form B” (40% RH and 50% RH). Also, under “50% RH, 25° C.”, the “I-3 Form B pattern in VH-XRPD” value is on record as “started to show up”. The “form by VH-XRPD” value (70% RH, 25° C.) is listed as “fully converted to a new form, I-3 Form B”. Besides, the XRPD entry is recorded as “I-3 Form A + 2Theta 17.5°” (Chamber, 25° C., 30% RH (1 week), air tight container for XRPD); “I-3 Form B” (Chamber, 25° C., 40% RH (1 week), air tight container for XRPD); “I-3 Form B” (Chamber, 25° C., 50% RH (1 week), air tight container for XRPD); “I-3 Form A” (VH-XRPD, 25° C., 10% RH (2 h)); “I-3 Form A” (VH-XRPD, 25° C., 39% RH (initial)); “I-3 Form A” (VH-XRPD, 25° C., 40% RH (2 h)). The XRPD result is reported as “I-3 Form A + 2Theta 17.3°” (VH-XRPD, 25° C., 50% RH (2 h)) and “I-3 Form B” (VH-XRPD, 25° C., 70% RH (2 h)).
